Data set [1] in a line: Evaluation of the cell toxicity using cultured human hepatocyte (ATP, Celltiter-Glo). It counts as cell-based. Particulars: cultured adherent human hepatocytes (thawed from frozen); cultured human hepatocytes, 24 hours, ATP concentration; read-out: IC50 (50% inhibitory compound concentration of the emission of light, cell toxicity). How it is done: (§1) Evaluation of the cell toxicity using cultured human hepatocyte.
(§2) Frozen adherent human hepatocyte was thawed and suspended in hepatocyte cultured medium (HCM) purchased from Lonza, and then seeded in 96 wells plate coated by collagen. The hepatocytes were cultured overnight in the incubator (5% carbon dioxide, 95% air, 37° C.) and its medium was replaced with medium including test compounds ([…]) and cultured for 24 hours more. The cell toxicity was evaluated by measurement of ATP concentration in the cells. Specifically, using Promega Celltiter-Glo luminescent assay kit made by Promega KK, the cells were dissolved in an accompanying assay buffer and the ATP concentration released from the cells was determined by an emission of light of the luciferin-luciferase enzyme activity. The emission of light was measured by Molecular device's SpectraMax plate reader. A degree of toxicity was shown 50% inhibitory compound concentration of the emission of light (IC50).
A general note: Cellular ATP, detected with luciferase, serves as a proxy for viable cell number.

Data set [2] relates to cultured human hepatocyte. The description is as above. It counts as cell-based. The conditions noted are these: IC50 of Biological Example 4 / EC50 of Biological Example 1. How it is done:
as §1, §2

The next data set has as its target T1, human SSTR2 (Homo sapiens, UniProt P30874).
T1 construct: Myc; expressed in transfected cells
The data set is described as follows: Evaluation of SSTR2 agonist activity using human SSTR2 expressing cells (inhibition of Forskolin-stimulated cAMP production in SSTR2-CHO-K1). It counts as cell-based. Particulars: read-out: EC50 of agonist activity against human SSTR2. For orientation: Changes in cAMP serve as a functional read-out for many G protein-coupled receptors.

In data set [3] the test system is Growth Hormone (GH) secretion. The data set can be described thus: Evaluation of Growth Hormone (GH) secretory inhibitory activity using rat (GHRH-evoked). It counts as in vivo. How it is done:
Evaluation of Growth Hormone (GH) secretory inhibitory activity using rat.
Test compounds dissolved in vehicle (distillated water (Otsuka jouryuusui, Otsuka Pharmaceutical Factory, Inc.) or vehicle only was administered to rat (7-week-old, male Crl: CD (SD) IGS rat (CHARLES RIVER LABORATORIES JAPAN, INC.)) orally, and 27 min. later, 50 mg/kg of sodium pentobarbital (Somunopentil® Kyoritsu Seiyaku) was administered by tail vein injection to be anesthetized. Three minutes after administration of sodium pentobarbital, 0.01 mg/kg of growth hormone-releasing hormone (GHRH, Bachem) was administered by tail vein injection to evoke GH secretion. To measure blood concentration of GH, 0.2 mL blood sample from cervical vein was collected 5 minutes after administration of GHRH. The blood samples were treated with centrifugation at 13,000 g at 4° C. for 5 min. to obtain plasma sample. Blood concentration of GH was determined by Rat/Mouse Growth Hormone ELISA (Millipore) according to the procedure manual.
Test compounds dissolved in vehicle (distillated water (Otsuka jouryuusui, Otsuka Pharmaceutical Factory, Inc.) or vehicle only was administered to rat (7-week-old, male Crl: CD (SD) IGS rat (CHARLES RIVER LABORATORIES JAPAN, INC.)) orally, and 7 hours 57 minutes later, 50 mg/kg of sodium pentobarbital (Somunopentil® Kyoritsu Seiyaku) was administered by tail vein injection to be anesthetized. Three min. after administration of sodium pentobarbital, 0.01 mg/kg of growth hormone-releasing hormone (GHRH, Bachem) was given by tail vein injection to evoke GH secretion. Procedure after that was same as [Procedure (A)]

Data set [4] deals with somatostatin receptor subtype 1 (SSTR1) (Homo sapiens, UniProt P30872). The conditions noted are these: reported in background art; cited from earlier work.
The target in data set [5] is somatostatin receptor subtype 2 (SSTR2) (Homo sapiens, UniProt P30874). Particulars: reported in background art; cited from earlier work.
In data set [6] the target is somatostatin receptor subtype 3 (SSTR3) (Homo sapiens, UniProt P32745). The conditions noted are these: reported in background art; cited from earlier work.
The target in data set [7] is somatostatin receptor subtype 4 (SSTR4) (Homo sapiens, UniProt P31391). Particulars: reported in background art; cited from earlier work.
The test system of a further data set is gastric acid secretion. The data set can be described thus: Evaluation of the gastric-acid secretion inhibitory activity using rat (gastric outlet tied off). Format: in vivo. The conditions noted are these: dose of 0.3 mg/kg, subcutaneously.
Where [8] appears, read: 1 mg/kg orally, Procedure (B): administered 8 hours before.

Each structure is given as a SMILES string.

The values below come from patent US10214540B2, “Compound having agonistic activity on somatostatin receptor, and use thereof for medical purposes” (ONO PHARMACEUTICAL CO., LTD., priority 2012, dated 2019).

T1 sequence (P30874 whole entry): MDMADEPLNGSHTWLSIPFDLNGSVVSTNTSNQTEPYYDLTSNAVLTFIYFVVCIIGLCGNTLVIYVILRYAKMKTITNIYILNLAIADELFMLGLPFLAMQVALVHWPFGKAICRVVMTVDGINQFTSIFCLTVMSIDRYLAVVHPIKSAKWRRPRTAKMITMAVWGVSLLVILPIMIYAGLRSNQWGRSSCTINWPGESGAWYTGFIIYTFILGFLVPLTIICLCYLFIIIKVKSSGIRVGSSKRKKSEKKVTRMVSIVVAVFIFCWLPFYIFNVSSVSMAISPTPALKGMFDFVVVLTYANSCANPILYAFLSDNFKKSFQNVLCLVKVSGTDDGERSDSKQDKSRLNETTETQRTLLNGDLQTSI
somatostatin receptor subtype 1 (SSTR1), sequence (P30872 whole entry, species assumed): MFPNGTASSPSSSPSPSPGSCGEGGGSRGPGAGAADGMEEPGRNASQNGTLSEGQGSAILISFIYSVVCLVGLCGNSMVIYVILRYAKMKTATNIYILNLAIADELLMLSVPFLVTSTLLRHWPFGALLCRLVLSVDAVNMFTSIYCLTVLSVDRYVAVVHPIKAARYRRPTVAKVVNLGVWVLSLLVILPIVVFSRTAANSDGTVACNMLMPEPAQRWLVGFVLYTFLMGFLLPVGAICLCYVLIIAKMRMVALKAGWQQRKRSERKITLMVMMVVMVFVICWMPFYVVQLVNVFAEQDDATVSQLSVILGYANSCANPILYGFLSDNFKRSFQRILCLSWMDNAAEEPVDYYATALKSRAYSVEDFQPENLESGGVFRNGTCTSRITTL
somatostatin receptor subtype 4 (SSTR4), sequence (P31391 whole entry, species assumed): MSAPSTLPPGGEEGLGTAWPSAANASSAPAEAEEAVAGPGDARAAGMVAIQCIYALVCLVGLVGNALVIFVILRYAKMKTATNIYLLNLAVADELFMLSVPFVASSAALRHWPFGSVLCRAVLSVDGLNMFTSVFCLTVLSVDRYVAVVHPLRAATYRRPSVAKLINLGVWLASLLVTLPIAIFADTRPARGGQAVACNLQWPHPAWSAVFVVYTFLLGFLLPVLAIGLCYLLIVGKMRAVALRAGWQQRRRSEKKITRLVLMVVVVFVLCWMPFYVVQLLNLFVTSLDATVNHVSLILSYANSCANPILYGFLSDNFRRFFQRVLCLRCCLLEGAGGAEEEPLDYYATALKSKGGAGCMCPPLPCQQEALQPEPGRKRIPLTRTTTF
somatostatin receptor subtype 3 (SSTR3), sequence (P32745 whole entry, species assumed): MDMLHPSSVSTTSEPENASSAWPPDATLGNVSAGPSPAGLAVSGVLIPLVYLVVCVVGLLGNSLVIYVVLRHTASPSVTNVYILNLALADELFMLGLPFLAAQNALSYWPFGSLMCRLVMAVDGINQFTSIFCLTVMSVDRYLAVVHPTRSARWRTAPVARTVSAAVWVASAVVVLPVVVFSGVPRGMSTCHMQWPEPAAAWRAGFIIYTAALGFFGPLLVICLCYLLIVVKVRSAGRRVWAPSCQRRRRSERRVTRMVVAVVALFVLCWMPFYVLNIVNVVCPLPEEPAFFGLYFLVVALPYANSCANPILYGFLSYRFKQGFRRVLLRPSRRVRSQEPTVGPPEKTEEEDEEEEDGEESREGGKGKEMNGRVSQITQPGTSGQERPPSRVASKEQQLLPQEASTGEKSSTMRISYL
somatostatin receptor subtype 2 (SSTR2), sequence (P30874 whole entry, species assumed): as the sequence (P30874 whole entry) above
Description for gastric acid secretion: Evaluation of the gastric-acid secretion inhibitory activity using rat.
After closing the laparotomy department, vehicle only (saline (Otsuka seishokuchu, Otsuka Pharmaceutical Factory, Inc.) or test compounds which were dissolved in vehicle were administered subcutaneously immediately, and the rats were recovered from anesthesia. After 2 hours from tying gastric outlet, the rats were treated with abdominal operation under isoflurane anesthesia again, pinched cardiac end of the stomach with forceps and exsanguinated to death. After stomach contents were centrifugalized at 500 g for 15 min. and the supernatant was separated as gastric fluid, the volume of gastric fluid was determined based on weight (mL/100 g BW). Furthermore, acid concentration of gastric fluid (mmol/mL) was determined by back titration using COM-1600ST automatic titrator (Hitachi High-Technologies Corporation (Hiranuma sangyo Co., Ltd.)).
Description for human SSTR2: Evaluation of SSTR2 Agonist Activity Using Human SSTR2 Expressing Cells
CHO-K1 (−) were cultured using Ham's F-12 (including FBS (10%), penicillin (100 U/mL) and streptomycin (0.1 mg/mL)) as medium. The transduced cells were cultured using the medium above with geneticin (1 mg/ml).
The plasmid pIRESneo-Myc/hSSTR2 was transduced into CHO-K1 (−) cell using Lipofectamine 2000 (Invitrogen). After 48 hours, the medium was changed to the medium including 1 mg/mL Geneticin, overexpressing cells were selected and stably overexpressing cells (SSTR2-CHO-K1) were established.
Human SSTR2 agonist activity of test compounds was evaluated by following procedure using inhibition activity against intracellular cyclic AMP (cAMP) production stimulated by Forskolin as an indicator. The SSTR2-CHO-K1 cells suspended in Ham's F-12 medium (including fetal bovine serum (10%), penicillin (100 U/mL), streptomycin (0.1 mg/mL)) including 0.25 mg/mL Geneticin was seeded in 96 wells plate (4.0×10^4 cells/0.1 mL/1 well). After 1 day, the medium was removed and the cells were washed with 0.1 mL of wash buffer solution [0.1% bovine serum albumin (BSA), Hank's Balanced Salt Solution (HBSS) including 20 mmol/L 4-(2-hydroxyethyl)-1-piperazine ethanesulfonic acid (HEPES)] twice. To the cells added 0.06 mL/well assay buffer [500 nmol/L 3-isobutyl-1-methylxanthine (IBMX), 0.1% BSA, 20 mmol/L HBSS including HEPES], and incubated for 15 min. under 5% CO2 and 37° C. Next, to the cells added 0.06 mL/well assay buffer including test compounds of the double concentration of final concentration and 0.02 mmol/L Forskolin, and incubated for 30 min. under 5% CO2 and 37° C. After that, to the cells added 0.12 mL/well Assay/Lysis buffer included with cAMP-Screen® kit (Applied Biosystems®), and incubated for 30 min. under 5% CO2 and 37° C. The concentration of c-AMP is determined by ELISA test according to manual included with the kit.

The term EC50 denotes the concentration giving half of the maximal effect. Consider `Cc1cc(F)cc(-c2cncc(/C=C/c3cccc(C#N)c3)c2N2CCC(N)CC2)c1` [Example 36(5), 3-{(E)-2-[4-(4-amino-1-piperidinyl)-5-(3-fluoro-5-methylphenyl)-3-pyridinyl]vinyl}benzonitrile], for which the IC50 at 24 h in data set [1] amounted to 19 µM. In data set [2], the “ratio of IC50 (hepatocyte toxicity) divided by SSTR2 agonist activity (EC50)” value is reported as 1,190,000 times. Besides, the concentration for a half-maximal effect (EC50) on human SSTR2 was found to be 0.016 nM. Also, the “ratio of GH secretion inhibition” value in data set [3] (setting [8]) turned out to be 92%.

For `Cc1cc(F)cc(-c2cncc(-c3ccc(C(F)(F)F)cc3)c2N2CCC(N)CC2)c1` [Example 26(24), 1-{3-(3-fluoro-5-methylphenyl)-5-[4-(trifluoromethyl)phenyl]-4-pyridinyl}-4-piperidinamine], the IC50 at 24 h in [1] is 35 µM. Also, in [2], the “ratio of IC50 (hepatocyte toxicity) divided by SSTR2 agonist activity (EC50)” value was 710,000 times. Also, at human SSTR2, the EC50 is 0.049 nM. Besides, the “ratio of GH secretion inhibition” value in data set [3] (setting [8]) was 91%.

Turning to `CC(C)[C@@H]1NC(=O)[C@H](CCCCN)NC(=O)[C@@H](Cc2c[nH]c3ccccc23)NC(=O)[C@H](Cc2ccc(O)cc2)NC(=O)[C@@H](NC(=O)[C@H](N)Cc2ccc3ccccc3c2)CSSC[C@@H](C(=O)N[C@H](C(N)=O)[C@@H](C)O)NC1=O` [Lanreotide acetate], the “binding to SSTR1 (in words)” value in [4] is “not to bind”. Also, in data set [5], the “binding affinity to SSTR2 (in words)” value is “high affinity”. In addition, the “binding affinity to SSTR3 (in words)” value in data set [6] is listed as “moderate affinity”. Also, the “binding to SSTR4 (in words)” value in [7] is recorded as “not to bind”.

Take `Cc1cc(F)cc(-c2cncc(/C=C/c3cncc(C#N)c3)c2N2CC[C@H]3NCCO[C@@H]3C2)c1` (racemic) [Example 36(8), 5-[(E)-2-{5-(3-fluoro-5-methylphenyl)-4-[rac-(4aR,8aR)-octahydro-6H-pyrido[3,4-b][1,4]oxazin-6-yl]-3-pyridinyl}vinyl]nicotinonitrile]: the IC50 at 24 h in data set [1] was determined as 69 µM. Besides, the “ratio of IC50 (hepatocyte toxicity) divided by SSTR2 agonist activity (EC50)” value in data set [2] is reported as 2,030,000 times. Besides, the EC50 on human SSTR2 came to 0.034 nM. Also, the “ratio of GH secretion inhibition” value in [3] (setting [8]) came out at 83%.

For `Cc1cc(C)cc(-c2cnc3cc(Cl)c(-c4cnn(C)c4)cc3c2OCC[C@H]2CCCCN2)c1` [formula (M), reference compound], the IC50 at 24 h in data set [1] is 13 µM.

As for `Cc1cc(C)cc(NC(=O)c2cncc(-c3cc(C)cc(C)c3)c2N2CCC(CN)CC2)c1` [Example 2(20), 4-[4-(aminomethyl)-1-piperidinyl]-N,5-bis(3,5-dimethylphenyl)pyridine-3-carboxamide], the IC50 at 24 h in data set [1] came out at 40 µM. In [2], the “ratio of IC50 (hepatocyte toxicity) divided by SSTR2 agonist activity (EC50)” value is 6,670,000 times. Also, in the data set with gastric acid secretion, the “ratio of gastric acid secretion inhibition” value came out at 89%. Besides, the concentration giving a half-maximal response (EC50) on human SSTR2 worked out at 0.006 nM. In data set [3] (3 mg/kg orally, Procedure (A): administered 30 min before), the “ratio of GH secretion inhibition” value worked out at 97%.

Regarding `Cc1cc(C)cc(-c2cncc(-c3ccc(C(F)(F)F)cc3)c2N2CCC(N)CC2)c1` [Example 26(15), 1-{3-(3,5-dimethylphenyl)-5-[4-(trifluoromethyl)phenyl]-4-pyridinyl}-4-piperidinamine], the “ratio of GH secretion inhibition” value in data set [3] (3 mg/kg orally, Procedure (B): administered 8 hours before) worked out at 92%.
